Assay [1] has as its system APPα and APPβ (APP metabolites). Kind of assay: APPα and APPβ production in culture medium by western blot, BA-3 cell line overexpressing BACE1 and APP695. It counts as cell-based. The method, then:
A HEK293-derived BA-3 cell line overexpressing BACE1(β-secretase) and APP695 was plated on 6-well plate by using DMEM (Dulbecco's Modified Eagle's Medium) including 10% fetal bovin serum (FBS) in such a manner that it occupied 80% or more of the area in each well, and then was cultured for 1 day. After the removal of the culture medium, free DMEM (not including fetal bovine serum) was heated to 37°C, and added in an amount of 0.9ml to each well. Then, toosendanin or a toosendan fructus fraction extracted with each solvent was diluted to an appropriate concentration by 0.1ml free DMEM, and the cell line was treated with these materials, and cultured for 24 hours. 0.2ml of the culture medium treated with each test sample was collected, and subjected to electrophoresis by 8% SDS-PAGE (polyacrylamide gel electrophoresis). Then, AB1560(monoclonal) and Rb53(polyclonal) antibodies (antibodies against APPα and APPβ) were used to measure the amounts of APPα and APPβ within the culture medium through western blotting.
Extracts (ethyl alcohol, methanol, ethyl acetate, and 90% methanol) of meliae cortex (bark of chinaberry) were obtained under the same organic solvent extraction condition of toosendan fructus. Then, their effects on APPβ production reduction were tested.
On the toosendan fructus ethyl alcohol extract obtained from Example 9-1, an APPβ production reducing effect, an APPα production promoting effect, and an Aβ production inhibiting effect were measured in the same manner as described in Example 5.
For orientation: Immunoblotting shows a protein as a band on a membrane.

For another assay, the system named is Aβ40. Description: Aβ40 quantification in rat serum before/after oral administration. As to conditions: 5mg/kg oral, blood after two hours. It counts as in vivo. The method, then: Before administration of toosendanin, blood was secured. Then, toosendanin suspended in 20% ethyl alcohol was orally administered in doses of 5 and 50mg/kg. After two hours, the blood was collected, and the concentration change of Aβ within the blood before/after administration was measured. The collected blood was centrifuged (16,000×g, 20 minutes, 4°C), and Aβ40 within the collected serum was quantified by using an Aβ40 quantitative analysis kit (Mouse/Rat Amyloidβ (1-40) High Specific Assay Kit, IBL, Japan).

The mark [2] stands for this setting: concentration of 12.5nM or less.

These results are taken from patent EP2444091B1, “USE OF T[…] MELIA AZEDARACH EXTRACTS FOR PREVENTING OR TREATING DEMENTIA” (Ildong Pharm Co., Ltd., priority 2009, dated 2010).

SMILES strings stand for the structures. Where only a bound is given, the exact number is not on record here.

Regarding `CC(=O)O[C@@H]1C[C@H](O)[C@@]23CO[C@@H](O)[C@]1(C)[C@@H]2C[C@@H](O)[C@]1(C)[C@@H]3C(=O)[C@H](OC(C)=O)[C@@]2(C)[C@H](c3ccoc3)C[C@H]3O[C@]321` [toosendanin], in assay [1] (at 0.8uM, 24 hours), the “production of APPα with respect to a non-treated group” value is given as 141.5% and the “production of APPβ with respect to a non-treated group” value was 17.8%. Further, in assay [1] (setting [2]), the “production of APPα” value is “promoting the production of APPα” and the “production of APPβ” value was “inhibited the production of APPβ”. Moreover, in the assay on Aβ40, the “inhibition of Aβ40 in serum” value is not below 85%.
